Measured values taken from ChEMBL document CHEMBL5360672, “Identification of Novel Dual-Target Estrogen Receptor α Degraders with Tubulin Inhibitory Activity for the Treatment of Endocrine-Resistant Breast Cancer” (J Med Chem, 2023).

Experiments:
[1] = molecular target: T1, Estrogen receptor (Homo sapiens) (UniProt P03372); assay: Binding affinity to human ERalpha assessed as relative binding affinity incubated under vibration for 1 min followed by 2 hrs incubation under dark condition by fluorescence polarization assay relative to estradiol; details: time 121.0 min
T1 sequence (whole entry): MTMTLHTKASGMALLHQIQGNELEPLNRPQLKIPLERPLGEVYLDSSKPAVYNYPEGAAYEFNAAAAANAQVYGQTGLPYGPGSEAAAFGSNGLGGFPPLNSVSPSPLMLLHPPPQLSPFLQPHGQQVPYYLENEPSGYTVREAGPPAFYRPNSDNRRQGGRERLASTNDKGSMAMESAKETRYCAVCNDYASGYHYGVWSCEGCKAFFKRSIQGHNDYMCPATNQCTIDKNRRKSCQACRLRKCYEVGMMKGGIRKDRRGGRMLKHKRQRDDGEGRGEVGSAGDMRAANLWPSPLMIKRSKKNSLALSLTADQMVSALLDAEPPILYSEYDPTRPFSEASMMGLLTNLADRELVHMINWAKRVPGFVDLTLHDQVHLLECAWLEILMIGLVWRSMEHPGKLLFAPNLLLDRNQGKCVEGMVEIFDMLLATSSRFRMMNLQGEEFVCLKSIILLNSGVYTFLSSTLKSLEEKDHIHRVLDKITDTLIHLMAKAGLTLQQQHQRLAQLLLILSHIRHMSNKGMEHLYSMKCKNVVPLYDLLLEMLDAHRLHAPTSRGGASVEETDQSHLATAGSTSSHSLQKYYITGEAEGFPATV

[2] = molecular target: Estrogen receptor beta (Homo sapiens) (UniProt Q92731); assay: Binding affinity to human ERbeta assessed as relative binding affinity incubated under vibration for 1 min followed by 2 hrs incubation under dark condition by fluorescence polarization assay relative to estradiol; details: time 121.0 min
Estrogen receptor beta (Homo sapiens), sequence (Q92731 whole entry): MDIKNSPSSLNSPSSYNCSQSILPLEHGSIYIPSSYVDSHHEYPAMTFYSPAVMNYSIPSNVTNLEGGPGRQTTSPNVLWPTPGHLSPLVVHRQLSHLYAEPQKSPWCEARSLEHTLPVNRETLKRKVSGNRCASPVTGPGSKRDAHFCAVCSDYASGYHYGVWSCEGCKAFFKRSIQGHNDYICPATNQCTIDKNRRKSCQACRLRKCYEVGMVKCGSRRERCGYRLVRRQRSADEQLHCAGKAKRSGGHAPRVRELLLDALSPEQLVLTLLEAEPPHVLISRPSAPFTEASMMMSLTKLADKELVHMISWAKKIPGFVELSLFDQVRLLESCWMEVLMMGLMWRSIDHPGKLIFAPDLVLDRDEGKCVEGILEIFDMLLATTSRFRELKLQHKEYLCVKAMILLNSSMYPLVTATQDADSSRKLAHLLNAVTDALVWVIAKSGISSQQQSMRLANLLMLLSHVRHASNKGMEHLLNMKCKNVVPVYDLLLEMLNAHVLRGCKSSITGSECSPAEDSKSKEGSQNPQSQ

[3] = species on record: Homo sapiens; assay: Selectivity ratio of relative binding affinity for human ERalpha to relative binding affinity to human ERbeta
[4] = test system: MCF7; assay: Antiproliferative activity against ERalpha positive human MCF7 cells assessed as inhibition of cell proliferation incubated for 72 hrs by CCK8 assay; assay type: functional, cell-based; details: MCF7, 72 h
[5] = test system: T47D; assay: Antiproliferative activity against ERalpha positive human T47D cells assessed as inhibition of cell proliferation incubated for 72 hrs by CCK8 assay; assay type: functional, cell-based
[6] = Cytotoxicity against human MCF-10A cells assessed as inhibition of cell proliferation incubated for 72 hrs by CCK8 assay; assay type: toxicity, cell-based
[7] = Selectivity index, ratio of IC50 for cytotoxicity against human MCF-10A cells to IC50 for antiproliferative activity against human MCF7 cells; assay type: toxicity, cell-based; details: MCF-10A cells and MCF7 cells, read-out: Ratio IC50

SMILES | RBA [1] | RBA [2] | Selectivity ratio [3] | IC50 [4] | IC50 [5] | IC50 at 72 h [6] | selectivity ratio [7]
COc1ccccc1OS(=O)(=O)C1CC2OC1C(c1ccc(NC(=O)CCCCC[Se]C#N)cc1)=C2c1ccc(O)cc1 (centres undefined) | 16% | 1.29% | 12.4 | 0.49 µM | 1.8 µM | 7.37 µM | 15
COc1cc2c(c(OC)c1OC)-c1ccc(OC)c(=O)cc1[C@@H](NC(C)=O)CC2 [COLCHICINE] |  |  |  | 0.001 µM | 0.00028 µM |  | 
N#C[Se]CCCCCC(=O)Nc1ccc(C2=C(c3ccc(O)cc3)C3CC(S(=O)(=O)Oc4ccccc4O)C2O3)cc1 (centres undefined) | 30.9% | 1.15% | 26.9 | 0.32 µM | 3.58 µM | 7.49 µM | 23.4
N#C[Se]CCCCCC(=O)Nc1ccc(C2=C(c3ccc(O)cc3)C3CC(S(=O)(=O)Oc4cccc5ccccc45)C2O3)cc1 (centres undefined) | 15.5% | 9% | 1.72 | 2.43 µM | 1.71 µM | 13.9 µM | 5.72
N#C[Se]CCCCCC(=O)Nc1ccc(C2=C(c3ccc(O)cc3)C3CC(S(=O)(=O)Oc4ccc(Br)cc4)C2O3)cc1 (centres undefined) | 0.31% | 3.48% | 0.09 | 1.85 µM | 120 µM | 18.6 µM | 10.1
N#C[Se]CCCCCC(=O)Nc1ccc(C2=C(c3ccc(O)cc3)C3CC(S(=O)(=O)Oc4ccccc4Cl)C2O3)cc1 (centres undefined) | 8.21% | 1.52% | 5.4 | 0.49 µM | 2.55 µM | 10.1 µM | 20.7
N#C[Se]CCCCCC(=O)Nc1ccc(C2=C(c3ccc(O)cc3)C3CC(S(=O)(=O)Oc4ccccc4Br)C2O3)cc1 (centres undefined) | 2.21% | 0.18% | 12.3 | 0.86 µM | 1.71 µM | 7.55 µM | 8.78
Cc1cccc(OS(=O)(=O)C2CC3OC2C(c2ccc(NC(=O)CCCCC[Se]C#N)cc2)=C3c2ccc(O)cc2)c1 (centres undefined) | 0.99% | 1.29% | 0.77 | 0.71 µM | 13.3 µM | 30.2 µM | 42.5
N#C[Se]CCCCCC(=O)Nc1ccc(C2=C(c3ccc(O)cc3)C3CC(S(=O)(=O)Oc4ccccc4)C2O3)cc1 (centres undefined) | 4.72% | 0.78% | 6.05 | 1.22 µM | 3.21 µM | > 60 µM | > 49.2
N#C[Se]CCCCCC(=O)Nc1ccc(C2=C(c3ccc(O)cc3)C3CC(S(=O)(=O)Oc4ccc(F)cc4)C2O3)cc1 (centres undefined) | 2.05% | 3.74% | 0.55 | 1.18 µM | 1.43 µM | 11.5 µM | 9.75
N#C[Se]CCCCCC(=O)Nc1ccc(C2=C(c3ccc(O)cc3)C3CC(S(=O)(=O)Oc4ccc(C(F)(F)F)cc4)C2O3)cc1 (centres undefined) | 4.43% | 1.61% | 2.75 | 2.84 µM | 3.02 µM | 16.2 µM | 5.72
N#C[Se]CC(=O)Nc1ccc(C2=C(c3ccc(O)cc3)C3CC(S(=O)(=O)Oc4ccccc4)C2O3)cc1 (centres undefined) | 0.57% | 0.24% | 2.38 | 2.76 µM | 24.6 µM | 38.6 µM | 14
N#C[Se]CCCCCC(=O)Nc1ccc(C2=C(c3ccc(O)cc3)C3CC(S(=O)(=O)Oc4ccc(Cl)cc4)C2O3)cc1 (centres undefined) | 0.6% | 2.64% | 0.23 | 1.32 µM | 3.52 µM | 11.8 µM | 8.94
N#C[Se]CCCCCC(=O)Nc1ccc(C2=C(c3ccc(O)cc3)C3CC(S(=O)(=O)Oc4cccc(C(F)(F)F)c4)C2O3)cc1 (centres undefined) | 0.17% | 0.3% | 0.57 | 0.57 µM | > 31 µM | 53.6 µM | 94.1
N#C[Se]CCCCCC(=O)Nc1ccc(C2=C(c3ccc(O)cc3)C3CC(S(=O)(=O)Oc4cccc(Cl)c4)C2O3)cc1 (centres undefined) | 4.08% | 0.1% | 40.8 | 0.7 µM | 4.09 µM | 29.7 µM | 42.4
N#C[Se]CCCCCC(=O)Nc1ccc(C2=C(c3ccc(O)cc3)C3CC(S(=O)(=O)Oc4ccc5ccccc5c4)C2O3)cc1 (centres undefined) | 4.51% | 0.23% | 19.6 | 3 µM | > 31 µM | 22.6 µM | 7.52
N#C[Se]CCCC(=O)Nc1ccc(C2=C(c3ccc(O)cc3)C3CC(S(=O)(=O)Oc4ccccc4)C2O3)cc1 (centres undefined) | 1.05% | 1.7% | 0.62 | 2.02 µM | 18.1 µM | 59.9 µM | 29.7
COc1ccc(OS(=O)(=O)C2CC3OC2C(c2ccc(NC(=O)CCCCC[Se]C#N)cc2)=C3c2ccc(O)cc2)cc1 (centres undefined) | 0.97% | 0.05% | 19.4 | 2.62 µM | 1.97 µM | 13.1 µM | 4.99
N#C[Se]CCCCCC(=O)Nc1ccc(C2=C(c3ccc(O)cc3)C3CC(S(=O)(=O)Oc4ccc(O)cc4)C2O3)cc1 (centres undefined) | 7.83% | 0.73% | 10.7 | 1.5 µM | 4.98 µM | 10.4 µM | 6.94
N#C[Se]CCCCCC(=O)Nc1ccc(C2=C(c3ccc(O)cc3)C3CC(S(=O)(=O)Oc4ccccc4C(F)(F)F)C2O3)cc1 (centres undefined) | 23.1% | 5.79% | 10.6 | 0.35 µM | 1.77 µM | 12.9 µM | 36.9
N#C[Se]CCCCCCOc1ccc(OS(=O)(=O)C2CC3OC2C(c2ccc(O)cc2)=C3c2ccc(O)cc2)cc1 (centres undefined) | 9.98% | 1.73% | 5.77 | 5.14 µM | 7.47 µM | 10.8 µM | 2.1
Cc1ccccc1OS(=O)(=O)C1CC2OC1C(c1ccc(NC(=O)CCCCC[Se]C#N)cc1)=C2c1ccc(O)cc1 (centres undefined) | 14.1% | 3.12% | 4.53 | 0.62 µM | 2.23 µM | 10.2 µM | 16.5
